Data from article PMC9504268, “Testing the Protective Effects of Sulfobutylether-Βeta-Cyclodextrin (SBECD) and Sugammadex against Chlorpromazine-Induced Acute Toxicity in SH-SY5Y Cell Line and in NMRI Mice” (Pharmaceutics, 2022).
Structures can show the parent of a compound that is named as a salt. Where two headings read alike, the source gives them in different places.

How the values were obtained:
[1] = veratridine toxin–CD complexes; cited from earlier work
[2] = set-up: method as in PMID 32376444; conditions: CPZ complex, cited from earlier work
[3] = set-up: method as in PMID 16553456; conditions: in regard to cholesterol; cited from earlier work
in vivo = assay type: in vivo, mice; conditions: female, NMRI, mouse, in vivo, female NMRI mice, read-out: LD50 (based on 24 h mortality)
Protocol: (§1) Female NMRI mice weighing 25–35 g were used for the experiments. Animals were kept in the Laboratory Animal House of the Department of Pharmacology and Pharmacotherapy (University of Pécs) under standard pathogen-free conditions, and were provided with food pellets and water ad libitum. Mice were weighed then treated intraperitoneally (i.p.) with CPZ (120–300 mg/kg, 10 mL/kg, dissolved in physiological saline). Since CPZ typically provoked convulsions after 2 min, SBECD or SGD (500 or 2000 mg/kg, 10 mL/kg, dissolved in physiological saline) was administered i.v. immediately after the CPZ treatment. Control animals were treated with physiological saline (10 mL/kg i.p. and/or i.v.). Before and after the treatment, mice could consume feed and water ad libitum.
(§2) We decided to administer CPZ intraperitoneally because it leads to the more rapid appearance of the drug in the systemic circulation compared to the per os treatment. […] However, we applied CDs (SBECD or SGD) intravenously to produce immediately their high plasma concentrations as well as to avoid any potential local interactions of CDs with CPZ in the abdominal cavity.
(§3) In agreement with the 3Rs, the up-and-down method was used. One animal is treated at a time, starting around the LD50 value estimated. If the animal survived, then the following animal was treated with a higher dose. If the animal died, then the following animal was treated with a lower dose. This method provides a good estimation of LD50, while the number of animals sacrificed can be minimized. LD50 values were determined with the Probit Analysis (CI = 95%) as has been reported.

NMRI mice = test: in vivo; assay type: in vivo; conditions: typically
Protocol: as §1, §2, §3

[4] = test system: several different cell lines; set-up: method as in PMID 4801078, PMID 6896707, PMID 23689352; conditions: cited from earlier work
SH-SY5Y cells [5] = test: SH-SY5Y cell viability based on total protein levels (fluorescamine); set-up: species or system human; conditions: 24 h
Protocol: The SH-SY5Y cell line (neuroblastoma, human; ATCC: CRL-2266) was maintained in DMEM supplemented with 10% FBS, penicillin (100 U/mL) and streptomycin (100 µg/mL) and incubated at 37 °C in a humidified environment with 5% CO2. Cells were trypsinized then transferred to 96-well plates (10^4 cells/well). Next day, the medium has been replaced and cells were treated for 24 h with CPZ (0–100 μM), with CDs (0–1500 μM), or with the combinations of CPZ and CDs (final volume: 200 μL/well). After 24 h treatment of cells with CPZ and/or CDs, cells were washed three times with 200 μL of PBS (pH 7.4; also containing 0.18 g/L CaCl2, and 0.2 g/L MgCl2). […]
Since certain compounds can modify cellular ATP levels (which can disrupt the correlation of ATP concentration with the number of living cells), total protein measurements were also performed to confirm the ATP-based results. Total protein levels were determined with fluorescamine (Fluram) reagent, as has been previously reported. […] After homogenization, the fluorescence signals of these samples were determined with Enspire Multimode plate reader (PerkinElmer) employing 385 nm and 490 nm as excitation and emission wavelengths, respectively. Total protein concentrations were determined based on bovine serum albumin calibration curve. […]

SH-SY5Y cells [6] = test: SH-SY5Y cell viability based on cellular ATP levels (luciferin-luciferase); set-up: species or system human; conditions: 24 h
Protocol: The SH-SY5Y cell line (neuroblastoma, human; ATCC: CRL-2266) was maintained in DMEM supplemented with 10% FBS, penicillin (100 U/mL) and streptomycin (100 µg/mL) and incubated at 37 °C in a humidified environment with 5% CO2. Cells were trypsinized then transferred to 96-well plates (10^4 cells/well). Next day, the medium has been replaced and cells were treated for 24 h with CPZ (0–100 μM), with CDs (0–1500 μM), or with the combinations of CPZ and CDs (final volume: 200 μL/well). After 24 h treatment of cells with CPZ and/or CDs, cells were washed three times with 200 μL of PBS (pH 7.4; also containing 0.18 g/L CaCl2, and 0.2 g/L MgCl2). Since cell death results in the detachment of cells from the plate, these floating cells and cell debris were removed from the well during these washing steps. Cells were lysed with 200 μL of borate buffer (0.2 M, pH 9.2) containing Triton X-100 (0.1%) detergent and ethylenediaminetetraacetic acid (EDTA, 20 mM), then the plate was placed in a shaker for 5 min. These lysates were applied in cellular ATP and total protein analyses.
The changes in cell viability were primarily evaluated based on ATP levels. ATP content is an indicator of metabolically active cells; therefore, cellular ATP concentration is a suitable parameter to assess the number of viable cells. ATP levels were quantified based on the luciferin-luciferase reaction adapted for microplate method, as has been described earlier. To quantify cellular ATP concentrations, a 10 μL/well volume of lysates was transferred into white 96-well optical plates (VWR, Debrecen, Hungary), after which 100 μL/well of the dissolved ATP reagent was added. Luminescence data of ATP standards and samples were measured with 5 s integration time, employing an Enspire Multimode reader (Perkin Elmer, Waltham, MA, US).
IC50 values were determined by sigmoidal fitting (Hill1) employing the Origin software (OriginLab Corporation, Northampton, MA, US). Statistical analyses were performed employing one-way ANOVA (with Tukey post hoc) test using the IBM SPSS Statistics software (Armonk, NY, US), where the level of significance was set as p < 0.01.

mice = test system: mice; set-up: method as in PMID 5630492, PMID 13813939; conditions: cited from earlier work
HeLa cells = test system: HeLa cells; set-up: method as in PMID 36031178; conditions: cited from earlier work
[7] = set-up: method as in PMID 31726616, PMID 36031178; conditions: complexes with zearalenone; cited from earlier work
[8] = Homo sapiens, SH-SY5Y cells, sigmoidal fitting

## OC[C@H]1O[C@@H]2O[C@H]3[C@H](O)[C@@H](O)[C@@H](O[C@H]4[C@H](O)[C@@H](O)[C@@H](O[C@H]5[C@H](O)[C@@H](O)[C@@H](O[C@H]6[C@H](O)[C@@H](O)[C@@H](O[C@H]7[C@H](O)[C@@H](O)[C@@H](O[C@H]8[C@H](O)[C@@H](O)[C@@H](O[C@H]9[C@H](O)[C@@H](O)[C@@H](O[C@H]1[C@H](O)[C@H]2O)O[C@@H]9CO)O[C@@H]8CO)O[C@@H]7CO)O[C@@H]6CO)O[C@@H]5CO)O[C@@H]4CO)O[C@@H]3CO [γ-CD]
[1]
  binding constant (K): approximately 10^4 L/mol
[2]; 1:1
  binding constant (K), 1:1 complexes: 500 L/mol
[2]; 1:2
  binding constant (K), 1:2 complexes: 6000 L/mol

## CC(O)COC[C@H]1O[C@@H]2O[C@H]3[C@H](O)[C@@H](O)[C@@H](O[C@H]4[C@H](O)[C@@H](O)[C@@H](O[C@H]5[C@H](O)[C@@H](O)[C@@H](O[C@H]6[C@H](O)[C@@H](O)[C@@H](O[C@H]7[C@H](O)[C@@H](O)[C@@H](O[C@H]8[C@H](O)[C@@H](O)[C@@H](O[C@H]1[C@H](O)[C@H]2O)O[C@@H]8COCC(C)O)O[C@@H]7COCC(C)O)O[C@@H]6COCC(C)O)O[C@@H]5COCC(C)O)O[C@@H]4COCC(C)O)O[C@@H]3COCC(C)O (stereo partly drawn) [HPBCD, hydroxypropyl-β-CD]
[3]
  binding constant: 20000 L/mol

## CN(C)CCCN1c2ccccc2Sc2ccc(Cl)cc21 [CPZ, Chlorpromazine hydrochloride]
In vivo; 500 mg/kg, CPZ i.p. + 500 mg/kg SBECD i.v.
  LD50: 206 mg/kg
In vivo; 500 mg/kg, CPZ i.p. + 500 mg/kg SGD i.v.
  LD50: 200 mg/kg
In vivo; 2000 mg/kg, CPZ i.p. + 2000 mg/kg SBECD i.v.
  LD50: 233 mg/kg
In vivo; 2000 mg/kg, CPZ i.p. + 2000 mg/kg SGD i.v.
  LD50: 172 mg/kg
In vivo; CPZ i.p., control (physiological saline i.v.)
  LD50: 194 mg/kg
NMRI mice; CPZ i.p. 120–300 mg/kg
  time after which CPZ provoked convulsions: 2 min
NMRI mice; CPZ i.p., with a few exceptions
  time in which CPZ caused its lethal impact: ≤ 2 h
[4]
  concentration range of significant toxic effects: 10 to 60 µM
SH-SY5Y cells [5]; 20 μM CPZ
  decrease in total protein levels: approximately 60%
SH-SY5Y cells [5]; [8]
  IC50: 15.1 µM
SH-SY5Y cells [6]; 0–100 μM tested
  concentration showing close the maximal toxicity: 50 µM
  lowest concentration causing statistically significant (p < 0.01) decrease of ATP and total protein levels/well: 5 µM
SH-SY5Y cells [6]; 20 μM CPZ
  decrease in ATP levels: approximately 60%
SH-SY5Y cells [6]; [8]
  IC50: 16 µM
mice
  i.p. LD50: 150 to 220 mg/kg

## OC[C@H]1O[C@@H]2O[C@H]3[C@H](O)[C@@H](O)[C@@H](O[C@H]4[C@H](O)[C@@H](O)[C@@H](O[C@H]5[C@H](O)[C@@H](O)[C@@H](O[C@H]6[C@H](O)[C@@H](O)[C@@H](O[C@H]7[C@H](O)[C@@H](O)[C@@H](O[C@H]8[C@H](O)[C@@H](O)[C@@H](O[C@H]1[C@H](O)[C@H]2O)O[C@@H]8CO)O[C@@H]7CO)O[C@@H]6CO)O[C@@H]5CO)O[C@@H]4CO)O[C@@H]3CO [β-CD]
HeLa cells
  effect on alternariol-induced cytotoxicity: did not affect

## methyl-β-CD
[7]
  binding constant: 10000 to 50000 L/mol

## succinyl–methyl-β-CD
[7]
  binding constant: 10000 to 50000 L/mol

## dimethyl-β-CD
[3]
  binding constant: 600000 L/mol
